Laboratory results published in PMC3849818 (Journal of medicinal chemistry, 2013).

Experiments:
OX2 receptor = target: T1, OX2 receptor (Homo sapiens, UniProt O43614); test: OX2 calcium mobilization functional assay; assay type: cell-based
T1 sequence (O43614 1-444): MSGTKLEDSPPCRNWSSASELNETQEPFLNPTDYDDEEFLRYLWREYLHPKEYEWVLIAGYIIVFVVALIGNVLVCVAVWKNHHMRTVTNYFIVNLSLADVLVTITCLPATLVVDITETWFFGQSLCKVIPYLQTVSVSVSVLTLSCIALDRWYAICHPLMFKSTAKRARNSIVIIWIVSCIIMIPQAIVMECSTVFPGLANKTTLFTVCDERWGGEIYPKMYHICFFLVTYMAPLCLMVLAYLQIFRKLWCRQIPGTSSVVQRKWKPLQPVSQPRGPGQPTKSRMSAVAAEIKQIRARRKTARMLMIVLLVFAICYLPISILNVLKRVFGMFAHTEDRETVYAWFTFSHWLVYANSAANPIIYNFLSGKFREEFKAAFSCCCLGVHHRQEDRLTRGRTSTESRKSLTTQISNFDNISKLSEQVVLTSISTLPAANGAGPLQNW

orexin 1 (OX1) receptor = target: T2, orexin 1 (OX1) receptor (Homo sapiens, UniProt O43613); test: OX1 calcium mobilization functional assay; assay type: cell-based; settings: for OX2/OX1: ratio of Ke values
T2 sequence (O43613 1-425): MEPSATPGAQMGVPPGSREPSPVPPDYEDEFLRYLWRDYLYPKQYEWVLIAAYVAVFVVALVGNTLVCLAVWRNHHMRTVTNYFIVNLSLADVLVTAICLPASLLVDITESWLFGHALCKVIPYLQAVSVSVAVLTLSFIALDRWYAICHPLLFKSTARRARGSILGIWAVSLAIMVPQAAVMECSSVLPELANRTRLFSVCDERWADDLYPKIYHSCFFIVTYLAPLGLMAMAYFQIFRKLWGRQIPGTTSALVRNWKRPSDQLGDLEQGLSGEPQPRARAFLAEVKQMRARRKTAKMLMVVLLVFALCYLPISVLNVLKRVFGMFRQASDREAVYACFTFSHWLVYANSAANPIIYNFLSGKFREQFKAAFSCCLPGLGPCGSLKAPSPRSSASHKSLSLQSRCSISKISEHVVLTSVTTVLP

Kd (OX2 receptor) [µM] | OX2/OX1 (orexin 1 (OX1) receptor) | Compound | further results
5.74 ± 0.096 | – | COc1cc2c(cc1O)C(Cc1ccc(OC)c(OC)c1)N(CC(=O)NCc1ccccc1)CC2 (stereo not shown) [Compound 11, N-benzyl-2-{1-[(3,4-dimethoxyphenyl)methyl]-7-hydroxy-6-methoxy-1,2,3,4-tetrahydroisoquinolin-2-yl}acetamide] | –
> 10 | >333 | CCOc1cc2c(cc1OC)CCN(CC(=O)NCc1ccccc1)C2Cc1ccc(OC)c(OC)c1 (stereo not shown) [Compound 12, N-benzyl-2-{1-[(3,4-dimethoxyphenyl)methyl]-7-ethoxy-6-methoxy-1,2,3,4-tetrahydroisoquinolin-2-yl}acetamide] | –
> 10 | >578 | CCCOc1cc2c(cc1OC)CCN(CC(=O)NCc1ccccc1)C2Cc1ccc(OC)c(OC)c1 (stereo not shown) [Compound 13, N-benzyl-2-{1-[(3,4-dimethoxyphenyl)methyl]-6-methoxy-7-propoxy-1,2,3,4-tetrahydroisoquinolin-2-.yl}acetamide] | –
> 10 | >31.7 | CCCCCCOc1cc2c(cc1OC)CCN(CC(=O)NCc1ccccc1)C2Cc1ccc(OC)c(OC)c1 (stereo not shown) [Compound 15, N-benzyl-2-{1-[(3,4-dimethoxyphenyl)methyl]-7-(hexyloxy)-6-methoxy-1,2,3,4-tetrahydroisoquinolin-2-yl}acetamide] | –
– | – | COc1ccc(CC2c3cc(OCC4CCCCC4)c(OC)cc3CCN2CC(=O)NCc2ccccc2)cc1OC (stereo not shown) [Compound 17, N-benzyl-2-[7-(cyclohexylmethoxy)-1-[(3,4-dimethoxyphenyl)methyl]-6-methoxy-1,2,3,4-tetrahydroisoquinolin-2-yl]acetamide] | OX1 activity, bound stated (orexin 1 (OX1) receptor; no activity up to the stated concentration): > 10 µM
> 10 | >127 | CCCC(=O)Oc1cc2c(cc1OC)CCN(CC(=O)NCc1ccccc1)C2Cc1ccc(OC)c(OC)c1 (stereo not shown) [Compound 25, 2-[(benzylcarbamoyl)methyl]-1-[(3,4-dimethoxyphenyl)methyl]-6-methoxy-1,2,3,4-tetrahydroisoquinolin-7-yl butanoate] | –
2.17 ± 0.79 | – | COc1ccc(CC2c3cc(OS(C)(=O)=O)c(OC)cc3CCN2CC(=O)NCc2ccccc2)cc1OC (stereo not shown) [Compound 26, 2-[(benzylcarbamoyl)methyl]-1-[(3,4-dimethoxyphenyl)methyl]-6-methoxy-1,2,3,4-tetrahydroisoquinolin-7-yl methanesulfonate] | –
> 10 | >1000 | COc1ccc(CC2c3cc(OS(=O)(=O)C(F)(F)F)c(OC)cc3CCN2CC(=O)NCc2ccccc2)cc1OC (stereo not shown) [Compound 27, 2-[(benzylcarbamoyl)methyl]-1-[(3,4-dimethoxyphenyl)methyl]-6-methoxy-1,2,3,4-tetrahydroisoquinolin-7-yl trifluoromethanesulfonate] | –
> 10 | >1060 | COc1ccc(CC2c3cc(OCC(F)(F)F)c(OC)cc3CCN2CC(=O)NCc2ccccc2)cc1OC (stereo not shown) [Compound 28, N-benzyl-2-{1-[(3,4-dimethoxyphenyl)methyl]-6-methoxy-7-(2,2,2-trifluoroethoxy)-1,2,3,4-tetrahydroisoquinolin-2-yl}acetamide] | selectivity over the OX2 receptor (orexin 1 (OX1) receptor): over 1000 fold
2.9 ± 0.191 | – | COc1ccc(CC2c3cc(OS(=O)(=O)c4ccccc4)c(OC)cc3CCN2CC(=O)NCc2ccccc2)cc1OC (stereo not shown) [Compound 29, 2-[(benzylcarbamoyl)methyl]-1-[(3,4-dimethoxyphenyl)methyl]-6-methoxy-1,2,3,4-tetrahydroisoquinolin-7-yl benzenesulfonate] | –
9 ± 0.76 | – | COc1ccc(CC2c3cc(OC)c(OC)cc3CCN2CC(=O)N2CCc3ccccc3C2)cc1OC (stereo not shown) [Compound 35, 2-{1-[(3,4-dimethoxyphenyl)methyl]-6,7-dimethoxy-1,2,3,4-tetrahydroisoquinolin-2-yl}-1-(1,2,3,4-tetrahydroisoquinolin-2-yl)ethan-1-one] | –
9.03 ± 3.8 | – | COc1ccc(CC2c3cc(OC)c(OC)cc3CCN2CC(=O)N2CCCC(c3ccccc3)C2)cc1OC (stereo not shown) [Compound 36, 2-{1-[(3,4-dimethoxyphenyl)methyl]-6,7-dimethoxy-1,2,3,4-tetrahydroisoquinolin-2-yl}-1-(3-phenylpiperidin-1-yl)ethan-1-one] | –
> 10 | >4.8 | COc1ccc(CC2c3cc(OC)c(OC)cc3CCN2CC(=O)N(C)Cc2ccccc2)cc1OC (stereo not shown) [Compound 39, N-benzyl-2-{1-[(3,4-dimethoxyphenyl)methyl]-6,7-dimethoxy-1,2,3,4-tetrahydroisoquinolin-2-yl}-N-methylacetamide] | –
– | – | COc1ccc(CC2c3cc(OC)c(OC)cc3CCN2CC(=O)Nc2cccc3ccccc23)cc1OC (stereo not shown) [Compound 41, 2-{1-[(3,4-dimethoxyphenyl)methyl]-6,7-dimethoxy-1,2,3,4-tetrahydroisoquinolin-2-yl}-N-(naphthalen-1-yl)acetamide] | fold less potent than the benzyl compound (OX1) (orexin 1 (OX1) receptor; relative to compound 6): around 3.6 fold
1.76 ± 0.37 | – | COc1ccc(CC2c3cc(OC)c(OC)cc3CCN2CC(=O)Nc2ccccc2-c2ccccc2)cc1OC (stereo not shown) [Compound 44, 2-{1-[(3,4-dimethoxyphenyl)methyl]-6,7-dimethoxy-1,2,3,4-tetrahydroisoquinolin-2-yl}-N-(2-phenylphenyl)acetamide] | –
0.655 ± 0.19 | – | COc1ccc(CC2c3cc(OC)c(OC)cc3CCN2CC(=O)NC2CCCc3ccccc32)cc1OC (stereo not shown) [Compound 47, 2-{1-[(3,4-dimethoxyphenyl)methyl]-6,7-dimethoxy-1,2,3,4-tetrahydroisoquinolin-2-yl}-N-(1,2,3,4-tetrahydronaphthalen-1-yl)acetamide] | –
– | – | COc1ccc(CC2c3cc(OC)c(OC)cc3CCN2CC(=O)N[C@@H](C)c2ccccc2)cc1OC (stereo partly drawn) [Compound 49, 2-{1-[(3,4-dimethoxyphenyl)methyl]-6,7-dimethoxy-1,2,3,4-tetrahydroisoquinolin-2-yl}-N-[(1S)-1-phenylethyl]acetamide] | OX1 activity in words (orexin 1 (OX1) receptor; at 10 μM): inactive; OX2 activity in words (OX2 receptor; at 10 μM): inactive
2.27 ± 0.11 | – | COc1ccc(CC2c3cc(OC)c(OC)cc3CCN2CC(=O)NCc2ccc(Cl)cc2)cc1OC (stereo not shown) [Compound 51, N-[(4-chlorophenyl)methyl]-2-{1-[(3,4-dimethoxyphenyl)methyl]-6,7-dimethoxy-1,2,3,4-tetrahydroisoquinolin-2-yl}acetamide] | –
3.46 ± 1 | – | COc1ccc(CC2c3cc(OC)c(OC)cc3CCN2CC(=O)NCc2ccc(F)cc2)cc1OC (stereo not shown) [Compound 52, 2-{1-[(3,4-dimethoxyphenyl)methyl]-6,7-dimethoxy-1,2,3,4-tetrahydroisoquinolin-2-yl}-N-[(4-fluorophenyl)methyl]acetamide] | –
> 10 | >38.3 | COc1ccc(CC2c3cc(OC)c(OC)cc3CCN2CC(=O)NCc2ccccn2)cc1OC (stereo not shown) [Compound 53, 2-{1-[(3,4-dimethoxyphenyl)methyl]-6,7-dimethoxy-1,2,3,4-tetrahydroisoquinolin-2-yl}-N-(pyridin-2-ylmethyl)acetamide] | –
– | – | COc1ccc(CC2c3cc(OC)c(OC)cc3CCN2CC(=O)NCc2ccc(NC(C)=O)cc2)cc1OC (stereo not shown) [Compound 57, 2-{1-[(3,4-dimethoxyphenyl)methyl]-6,7-dimethoxy-1,2,3,4-tetrahydroisoquinolin-2-yl}-N-[(4-acetamidophenyl)methyl]acetamide] | OX1 activity in words (orexin 1 (OX1) receptor; no concentration given): total loss of OX1 activity
2.44 ± 0.67 | – | CCCCCCNC(=O)Nc1ccc(CNC(=O)CN2CCc3cc(OC)c(OC)cc3C2Cc2ccc(OC)c(OC)c2)cc1 (stereo not shown) [Compound 59, 2-{1-[(3,4-dimethoxyphenyl)methyl]-6,7-dimethoxy-1,2,3,4-tetrahydroisoquinolin-2-yl}-N-({4-[(hexylcarbamoyl)amino]phenyl}methyl)acetamide] | –
2.31 ± 0.54 | – | CCCCCCCNC(=O)CN1CCc2cc(OC)c(OC)cc2C1Cc1ccc(OC)c(OC)c1 (stereo not shown) [Compound 60, 2-{1-[(3,4-dimethoxyphenyl)methyl]-6,7-dimethoxy-1,2,3,4-tetrahydroisoquinolin-2-yl}-N-heptylacetamide] | –

Compound | Kd (OX2 receptor) [µM] | OX2/OX1 (orexin 1 (OX1) receptor) | further results
CCCCOc1cc2c(cc1OC)CCN(CC(=O)NCc1ccccc1)C2Cc1ccc(OC)c(OC)c1 (stereo not shown) [Compound 14, N-benzyl-2-{7-butoxy-1-[(3,4-dimethoxyphenyl)methyl]-6-methoxy-1,2,3,4-tetrahydroisoquinolin-2-yl}acetamide] | 1.89 ± 0.48 | – | –
COc1ccc(CC2c3cc(OCCC(C)C)c(OC)cc3CCN2CC(=O)NCc2ccccc2)cc1OC (stereo not shown) [Compound 16, N-benzyl-2-{1-[(3,4-dimethoxyphenyl)methyl]-6-methoxy-7-(3-methylbutoxy)-1,2,3,4-tetrahydroisoquinolin-2-yl}acetamide] | 3.92 ± 1.2 | – | –
COc1ccc(CC2c3cc(OCCCCOc4ccccc4)c(OC)cc3CCN2CC(=O)NCc2ccccc2)cc1OC (stereo not shown) [Compound 24, N-benzyl-2-{1-[(3,4-dimethoxyphenyl)methyl]-6-methoxy-7-(4-phenoxybutoxy)-1,2,3,4-tetrahydroisoquinolin-2-yl}acetamide] | > 10 | >230 | –
